Test results published in US6951857B2, “6-Azauracil derivatives as IL-5 inhibitors” (priority 1997, dated 2005).

System: IL-5 production
Experiment: In vitro inhibition of IL-5 production in human blood
Type: cell-based
Conditions: test dose 1×10^−6 M; human whole blood stimulated with phytohemagglutinin, 48 hours, ELISA
Protocol: In Vitro Inhibition of IL-5 Production in Human Blood
Human Whole Blood Stimulation
Peripheral blood from healthy male donors was drawn into heparinized syringes (12.5 U heparin/ml). Blood samples were three-fold diluted in RMPI 1640 medium (Life Technologies, Belgium) supplemented with 2 mM L-glutamine, 100 U/ml penicillin and 100 μg/ml streptomycin, and 300 μl fractions were distributed in 24-well multidisc plates. Blood samples were preincubated (60 minutes at 37° C.) in a humidified 6% CO2-atmosphere with 100 μl of drug solvent (final concentration 0.02% dimethylsulfoxide in RPMI 1640) or with 100 μl of an appropriate dose of test compound before being stimulated by the addition of 100 μl of phytohemagglutinin HA17 (Murex, UK) at a final concentration of 2 μg/ml. After 48 hours, cell-free supernatant fluids were collected by centrifugation and stored at −70° C. until tested for the presence of IL-5.
IL-5 measurements were conducted as described in Van Wauwe et al. (1996, Inflamm Res, 45, 357-363) on page 358 using ELISA.
Table 8 lists the percentage inhibition of IL-5 production (column “% inhibition”) at a test dose of 1×10^−6 M, or in case the percentage inhibition is marked with an “*” 1×10^−5 M, for the compounds of the present invention including compounds of formula (I) which have been disclosed in U.S. Pat. No. 4,631,278 (Ref. A) or U.S. Pat. No. 4,767,760 (Ref: B) as summarized in table 7.
For `CON(C)C(=O)C(c1ccc(Cl)cc1)c1ccc(-n2ncc(=O)[nH]c2=O)cc1Cl` (racemic) [1.6, (±)-2-chloro-α-(4-chlorophenyl)-N-methoxy-N-methyl-4-(4,5-dihydro-3,5-dioxo-1,2,4-triazin-2(3H)-yl)benzeneacetamide], the inhibition at 1 µM was 49%. `CC(C#N)(c1ccc(Cl)c(C(F)(F)F)c1)c1c(Cl)cc(-n2ncc(=O)[nH]c2=O)cc1Cl` (racemic) [1.7, (±)-2,6-dichloro-α-[4-chloro-3-(trifluoromethyl)phenyl]-4-(4,5-dihydro-3,5-dioxo-1,2,4-triazin-2(3H)-yl)-α-methylbenzeneacetonitrile] showed an inhibition at 1 µM of 92%. Compound `CC(C#N)(c1ccc(Cl)cc1)c1c(Cl)cc(-n2ncc(=O)[nH]c2=O)cc1Cl` (racemic) [1.11, (±)-2,6-dichloro-α-(4-chlorophenyl)-4-(4,5-dihydro-3,5-dioxo-1,2,4-triazin-2(3H)-yl)-α-methylbenzeneacetonitrile] has an inhibition at 1 µM of 12%. Work on `CNC(=O)C(C)(c1ccc(Cl)cc1)c1ccc(-n2ncc(=O)[nH]c2=O)cc1Cl` (racemic) [1.14, (±)-2-chloro-α-(4-chlorophenyl)-4-(4,5-dihydro-3,5-dioxo-1,2,4-triazin-2(3H)-yl)-α,N-dimethylbenzeneacetamide] yielded an inhibition at 1 µM of 9%. `O=C(c1nc2ccccc2s1)C(c1ccc(Cl)cc1)c1ccc(-n2ncc(=O)[nH]c2=O)cc1Cl` (racemic) [1.20, (±)-2-[4-[2-(2-benzothiazolyl)-1-(4-chlorophenyl)-2-oxoethyl]-3-chlorophenyl]-1,2,4-triazin-3,5(2H,4H)-dione] gave an inhibition at 1 µM of 80%. In the case of `CC(C(N)=S)(c1ccc(Cl)cc1)c1ccc(-n2ncc(=O)[nH]c2=O)cc1Cl` (racemic) [1.21, (±)-2-chloro-α-(4-chlorophenyl)-α-methyl-4-(4,5-dihydro-3,5-dioxo-1,2,4-triazin-2(3H)-yl)benzeneethanethioamide], the inhibition at 1 µM is reported as 33%. Work on `CC(C#N)(c1ccc(Cl)c(C(F)(F)F)c1)c1cccc(-n2ncc(=O)[nH]c2=O)c1Cl` (racemic) [1.36, (±)-4-chloro-α-[2-chloro-3-(4,5-dihydro-3,5-dioxo-1,2,4-triazin-2(3H)-yl)phenyl]-α-methyl-3-(trifluoromethyl)benzeneacetonitrile] yielded an inhibition at 1 µM of 44%. `CN(C)CCCC(C#N)(c1ccc(Cl)cc1)c1ccc(-n2ncc(=O)[nH]c2=O)cc1Cl` (racemic) [1.58, (±)-2-chloro-α-(4-chlorophenyl)-4-(4,5-dihydro-3,5-dioxo-1,2,4-triazin-2(3H)-yl)-α-[3-(dimethylamino)propyl]-benzeneacetonitrile] showed an inhibition at 1 µM of 28%. With `CC(C#N)(c1ccc(Cl)c(C(F)(F)F)c1)c1cc(-n2ncc(=O)[nH]c2=O)ccc1Cl` (stereo not shown) [1.35] the inhibition at 1 µM was 33%. `N#CC(c1ccc(Cl)c(C(F)(F)F)c1)c1cc(-n2ncc(=O)[nH]c2=O)ccc1Cl` (stereo not shown) [1.37] showed an inhibition at 1 µM of 12%. For `N#CC(c1ccc(Cl)cc1)c1ccc(-n2ncc(=O)[nH]c2=O)cc1` (stereo not drawn) [1.41, α-(4-chlorophenyl)-4-(4,5-dihydro-3,5-dioxo-1,2,4-triazin-2(3H)-yl) benzeneacetonitrile], the inhibition at 1 µM was 13%.

System: not given
Experiment: not given
Conditions: not given
For `CN(C)CCCC(C#N)(c1ccc(Cl)cc1)c1ccc(-n2ncc(=O)[nH]c2=O)cc1Cl` (racemic) [1.58, (±)-2-chloro-α-(4-chlorophenyl)-4-(4,5-dihydro-3,5-dioxo-1,2,4-triazin-2(3H)-yl)-α-[3-(dimethylamino)propyl]-benzeneacetonitrile], the melting point was 140 °C. `N#CC(c1ccc(Cl)cc1)c1ccc(-n2ncc(=O)[nH]c2=O)cc1` (stereo not drawn) [1.41, α-(4-chlorophenyl)-4-(4,5-dihydro-3,5-dioxo-1,2,4-triazin-2(3H)-yl) benzeneacetonitrile] gave a melting point of 206.3 °C.
